Patent publication US20050282743A1, “Molecular interactions in cells” (Arbor Vita Corporation, priority 2001, published 2005)
pKd: −log10 of the molar value. Where two headings read alike, the source gives them in different places. Ends that are not written are not given here. Peptide text beside a SMILES is read from it. * marks the point of attachment. Biotin = O=C1N[C@H]2[C@H](CS[C@H]2CCCCC(=O)*)N1

How the values were obtained:
[1] = target: T1, PDZ protein (GST-PDZ fusion) (Homo sapiens, UniProt Q92796); test: G' assay (10 uM PL peptide), results of TABLE 7 and TABLE 12; format: binding; settings: PDZ NeDLG
T1 construct: made in house; host or cells: E. coli (DH5alpha, BL21 or JM109)
T1 sequence (Q92796 1-817): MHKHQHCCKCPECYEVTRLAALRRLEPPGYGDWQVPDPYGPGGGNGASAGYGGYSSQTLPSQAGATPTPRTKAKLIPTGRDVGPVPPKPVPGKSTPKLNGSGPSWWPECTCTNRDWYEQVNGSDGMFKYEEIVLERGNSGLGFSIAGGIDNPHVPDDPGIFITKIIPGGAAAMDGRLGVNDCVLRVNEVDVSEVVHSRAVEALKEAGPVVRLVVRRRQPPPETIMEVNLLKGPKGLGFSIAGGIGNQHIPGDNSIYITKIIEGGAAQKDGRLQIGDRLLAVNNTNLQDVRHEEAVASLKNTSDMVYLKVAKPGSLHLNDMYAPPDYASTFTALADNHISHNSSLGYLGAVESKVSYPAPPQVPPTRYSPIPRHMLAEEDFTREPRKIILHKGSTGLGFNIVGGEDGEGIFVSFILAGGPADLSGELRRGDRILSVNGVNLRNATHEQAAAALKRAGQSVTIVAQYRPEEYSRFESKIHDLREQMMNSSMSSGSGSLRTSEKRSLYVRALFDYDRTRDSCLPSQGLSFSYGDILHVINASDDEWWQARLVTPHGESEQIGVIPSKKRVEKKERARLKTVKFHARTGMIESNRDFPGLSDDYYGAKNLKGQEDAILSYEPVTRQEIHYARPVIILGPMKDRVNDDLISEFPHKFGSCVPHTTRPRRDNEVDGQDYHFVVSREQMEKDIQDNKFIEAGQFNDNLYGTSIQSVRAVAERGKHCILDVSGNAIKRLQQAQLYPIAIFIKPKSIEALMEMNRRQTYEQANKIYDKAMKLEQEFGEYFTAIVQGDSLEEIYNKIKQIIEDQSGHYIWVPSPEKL
How it was run: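 Biotinylated PL peptides at 10 uM (vs 20 uM in G^0 assay) bound to GST-PDZ fusions; PDZ protein at 5 ug/ml unless another concentration listed. Bound peptide read as A450 nm, classified 0–5 (0 = A450 0; 5 = A450 >4 repeated).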

[2] = target: PDZ-domain polypeptide (GST/PDZ fusion protein); test: Apparent affinity (Kd) by titration of PL peptide in the G assay; format: binding
How it was run: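 A fixed concentration of GST/PDZ fusion protein, 5 ug/ml by default, was mixed in solution with increasing labeled PL peptide (e.g. 0.1 uM-1 mM). Reaction times ranged from 10 minutes to 2 days at 4-37° C. Complexes were separated from free peptide and detected via the label as in the G assay, apparent affinity coming from the saturating concentration.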

Compound	Classification ([1]; PDZ Domain 1, 2)	Classification ([1]; PDZ Domain 2)	Classification ([1]; PDZ Domain 3)	also measured
RNIEEVYVGGKQVVPFSSSV (Biotin-RNIEEVYVGGKQVVPFSSSV) [Nedasin (s-form)]	2 (A450 nm 1-2)	–	–	–
CC[C@H](C)[C@H](NC(=O)[C@H](CCC(=O)O)NC(=O)[C@H](CO)NC(=O)[C@H](CCC(=O)O)NC(=O)[C@H](CCCNC(=N)N)NC(=O)[C@H](CCCNC(=N)N)NC(=O)[C@H](CC(C)C)NC(=O)[C@@H]1CCCN1C(=O)[C@H](CCCNC(=N)N)NC(=O)[C@@H]1CCCN1C(=O)[C@H](CCC(=O)O)NC(=O)[C@H](CC(C)C)NC(=O)[C@@H]1CCCN1C(=O)[C@@H](NC(=O)[C@H](CO)NC(=O)[C@H](C)NC(=O)[C@H](CCC(N)=O)NC(=O)[C@H](CC(N)=O)NC(=O)[C@H](Cc1c[nH]cn1)NC(=O)[C@H](CC(C)C)NC(=O)CCCC[C@@H]1SC[C@@H]2NC(=O)N[C@@H]21)C(C)C)C(=O)O [Kir2.1 (inwardly rect. K+ channel)] (Biotin-LHNQASVPLEPRPLRRESEI-OH; C-terminus assumed)	1 (A450 nm 0-1)	–	–	–
CC(C)C[C@H](NC(=O)[C@H](CCCNC(=N)N)NC(=O)CNC(=O)CNC(=O)[C@H](CCCNC(=N)N)NC(=O)[C@H](C)NC(=O)[C@@H]1CCCN1C(=O)[C@H](CCCNC(=N)N)NC(=O)CNC(=O)CNC(=O)[C@@H](NC(=O)[C@H](C)NC(=O)CCCC[C@@H]1SC[C@@H]2NC(=O)N[C@@H]21)C(C)C)C(=O)N[C@@H](CCC(N)=O)C(=O)NCC(=O)N[C@@H](CCCNC(=N)N)C(=O)N[C@@H](CCCNC(=N)N)C(=O)N[C@@H](CCC(N)=O)C(=O)N[C@H](C(=O)N[C@@H](CCC(N)=O)C(=O)N[C@H](C(=O)O)C(C)C)[C@@H](C)O [HPV E6 58 (modified)] (Biotin-AVGGRPARGGRLQGRRQTQV-OH; C-terminus assumed)	5 (A450 nm of 4 more than 2× repeated)	5 (A450 nm of 4 more than 2× repeated)	2 (A450 nm 1-2)	Classification ([1]; PDZ Domain 1): 1 (A450 nm 0-1)
CC[C@H](C)[C@H](NC(=O)[C@H](Cc1c[nH]cn1)NC(=O)[C@H](C)NC(=O)[C@H](C)NC(=O)[C@H](CO)NC(=O)[C@@H]1CCCN1C(=O)[C@H](CCCNC(=N)N)NC(=O)[C@H](CC(=O)O)NC(=O)[C@H](CCCCN)NC(=O)[C@@H]1CCCN1C(=O)[C@H](CC(=O)O)NC(=O)[C@H](CCC(=O)O)NC(=O)CCCC[C@@H]1SC[C@@H]2NC(=O)N[C@@H]21)C(=O)N[C@H](C(=O)N[C@@H](CCC(=O)O)C(=O)N[C@@H](C)C(=O)N[C@@H](CC(C)C)C(=O)N[C@@H](CCC(=O)O)C(=O)N[C@H](C(=O)N[C@@H](CC(=O)O)C(=O)N[C@H](C(=O)O)C(C)C)[C@@H](C)O)C(C)C [PDZ-binding kinase (PBK)] (Biotin-EDPKDRPSAAHIVEALETDV-OH; C-terminus assumed)	1 (A450 nm 0-1)	–	–	–
CC[C@H](C)[C@H](NC(=O)[C@H](CC(=O)O)NC(=O)[C@H](CCC(=O)O)NC(=O)[C@H](CCCNC(=N)N)NC(=O)[C@@H](NC(=O)CCCC[C@@H]1SC[C@@H]2NC(=O)N[C@@H]21)[C@@H](C)O)C(=O)N[C@@H](Cc1ccc(O)cc1)C(=O)N[C@H](C(=O)N[C@@H](CC(N)=O)C(=O)N[C@@H](Cc1ccc(O)cc1)C(=O)N1CCC[C@H]1C(=O)N[C@H](C(=O)N[C@@H](Cc1ccccc1)C(=O)N[C@@H](CO)C(=O)N[C@@H](CCCNC(=N)N)C(=O)N[C@@H](CCCNC(=N)N)C(=O)N1CCC[C@H]1C(=O)N[C@@H](CCCCN)C(=O)N[C@H](C(=O)N[C@@H](CCCNC(=N)N)C(=O)N[C@H](C(=O)O)C(C)C)[C@@H](C)O)[C@@H](C)O)C(C)C [DNAM-1] (Biotin-TREDIYVNYPTFSRRPKTRV-OH; C-terminus assumed)	–	–	–	pKd ([2]; PDZ BAI-1, PDZ Domain 2, read-out: Peptide Optimal Conc (Kd by titration of the PL peptide)): 5.40
GGGGGSGGGGGSGIESVKI [GLUR2 (glutamate receptor 2-modified)]	2 (A450 nm 1-2)	–	–	–
SLKPGTVLPPPPYRHRNTVV (Biotin-SLKPGTVLPPPPYRHRNTVV) [ErbB-4 receptor]	1 (A450 nm 0-1)	–	–	–
APC—adenomatous polyposis coli protein (ESSGTQSPKRHSGSYLVTSV)	4 (A450 nm 3-4)	–	–	–
CC[C@H](C)[C@H](NC(=O)[C@H](CCC(N)=O)NC(=O)[C@@H](NC(=O)[C@H](Cc1c[nH]cn1)NC(=O)[C@H](CCC(N)=O)NC(=O)[C@H](CC(=O)O)NC(=O)[C@H](CCC(=O)O)NC(=O)[C@H](CC(=O)O)NC(=O)[C@H](Cc1ccccc1)NC(=O)[C@@H]1CCCN1C(=O)[C@H](CCC(=O)O)NC(=O)[C@H](CC(N)=O)NC(=O)[C@H](CCC(=O)O)NC(=O)[C@@H]1CCCN1C(=O)[C@H](CC(=O)O)NC(=O)[C@H](CO)NC(=O)[C@H](CC(=O)O)NC(=O)CCCC[C@@H]1SC[C@@H]2NC(=O)N[C@@H]21)[C@@H](C)O)C(=O)N[C@H](C(=O)N[C@@H](CCCCN)C(=O)N[C@H](C(=O)O)C(C)C)[C@@H](C)O [PTEN]	–	–	–	pKd ([2]; PDZ SHANK, PDZ Domain 1, read-out: Peptide Optimal Conc (Kd by titration of the PL peptide)): 5.82
PYSELNYETSHYPASPDSWV (Biotin-PYSELNYETSHYPASPDSWV) [catenin - delta 2]	–	–	1 (A450 nm 0-1)	–
CC[C@H](C)[C@H](NC(=O)[C@H](Cc1ccc(O)cc1)NC(=O)[C@H](CC(C)C)NC(=O)[C@H](CCC(N)=O)NC(=O)[C@H](Cc1c[nH]cn1)NC(=O)[C@H](CO)NC(=O)[C@H](C)NC(=O)[C@H](CC(C)C)NC(=O)[C@@H](NC(=O)[C@H](CC(=O)O)NC(=O)[C@H](CCSC)NC(=O)[C@H](Cc1ccccc1)NC(=O)[C@@H]1CCCN1C(=O)[C@H](CCCNC(=N)N)NC(=O)[C@@H](NC(=O)[C@H](CC(C)C)NC(=O)[C@H](CC(N)=O)NC(=O)[C@H](CC(=O)O)NC(=O)[C@@H](NC(=O)[C@H](CO)NC(=O)CCCC[C@@H]1SC[C@@H]2NC(=O)N[C@@H]21)[C@@H](C)O)C(C)C)[C@@H](C)O)C(=O)O [presenilin-2] (Biotin-STDNLVRPFMDTLASHQLYI-OH; C-terminus assumed)	–	–	–	pKd ([2]; PDZ HEMBA 1003117, PDZ Domain 1, titration of the PL peptide, read-out: Peptide Optimal Conc (Kd, dissociation constant)): 5.40
CC(C)C[C@H](NC(=O)[C@H](C)NC(=O)[C@@H](NC(=O)[C@H](CCC(=O)O)NC(=O)[C@H](CCCNC(=N)N)NC(=O)[C@H](CCCNC(=N)N)NC(=O)CNC(=O)[C@H](CCC(N)=O)NC(=O)[C@H](CC(C)C)NC(=O)[C@H](CCCNC(=N)N)NC(=O)CNC(=O)CNC(=O)[C@H](CCCNC(=N)N)NC(=O)[C@H](C)NC(=O)[C@H](CO)NC(=O)[C@H](CCCNC(=N)N)NC(=O)CNC(=O)CNC(=O)[C@H](C)NC(=O)[C@H](C)NC(=O)CCCC[C@@H]1SC[C@@H]2NC(=O)N[C@@H]21)[C@@H](C)O)C(=O)O [HPV E6 33 (modified)] (Biotin-AAGGRSARGGRLQGRRETAL-OH; C-terminus assumed)	5 (A450 nm of 4 more than 2× repeated)	2 (A450 nm 1-2)	1 (A450 nm 0-1)	Classification ([1]; PDZ Domain 1): 1 (A450 nm 0-1)
ISGTPTSTMVHGMTSSSSVV (Biotin-ISGTPTSTMVHGMTSSSSVV) [Clasp-2]	–	1 (A450 nm 0-1)	–	–
TQGFPGPATWRRISSLESEV	5 (A450 nm of 4 more than 2× repeated)	5 (A450 nm of 4 more than 2× repeated)	1 (A450 nm 0-1)	Classification ([1]; PDZ Domain 1): 2 (A450 nm 1-2)
CC[C@H](C)[C@H](NC(=O)[C@H](CCC(N)=O)NC(=O)CCCC[C@@H]1SC[C@@H]2NC(=O)N[C@@H]21)C(=O)N[C@@H](CO)C(=O)N1CCC[C@H]1C(=O)NCC(=O)NCC(=O)N[C@@H](CC(C)C)C(=O)N[C@@H](CCC(=O)O)C(=O)N1CCC[C@H]1C(=O)N1CCC[C@H]1C(=O)N[C@@H](CO)C(=O)N[C@@H](CCC(=O)O)C(=O)N[C@@H](CCCCN)C(=O)N[C@@H](Cc1c[nH]cn1)C(=O)N[C@@H](Cc1ccccc1)C(=O)N[C@@H](CCCNC(=N)N)C(=O)N[C@@H](CCC(=O)O)C(=O)N[C@H](C(=O)N[C@@H](CCC(=O)O)C(=O)N[C@H](C(=O)O)C(C)C)[C@@H](C)O [Tax]	–	5 (A450 nm of 4 more than 2× repeated)	5 (A450 nm of 4 more than 2× repeated)	–
